The results in this text go back to patent US20080226596A1, “Therapeutic compositions and methods useful in treating hepatitis” (priority 2006, published 2008).

Series [1] is described as follows: Toxicity/tolerance of sodium stibogluconate in nude mice. In kind it is in vivo. As to the method:
The dosage of sodium stibogluconate corresponds to approximately 440 mg Sb/kg body weight (average mouse body weight 27 g), substantially higher than the standard therapeutic dose of 20 mg Sb/kg and the high dose (143 mg Sb/kg) that was clinically used by accident without serious toxicity. This dose of sodium stibogluconate was based on a previous observation in a pilot study that mice could tolerate daily dose of 20 mg Sb (approximately 700-800 mg Sb/kg). […] In light of the relatively rapid rate of clearance of the drug in vivo, 440 mg Sb/kg dosage was used to ensure the detection of the effectiveness of the drug for this initial study.
As discussed above, the dosage of sodium stibogluconate used for the treatment of nude mice was 12 mg Sb/mouse, s.c., daily (or approximately 440 mg/kg body weight). This dosage is much higher than the standard dose for leishmaniasis (20 mg Sb/kg, daily). As an initial step to assess the toxicity of such a high dosage of sodium stibogluconate in nude mice, the effect of sodium stibogluconate on the viability and body weights of WM9 xenografts nude mice during the 25 day period of the study was determined.

Series [2] has as its system Renca tumor-infiltrating immune cells. Put plainly: Renca tumor-infiltrating immune cells, immunohistochemistry. Further details: species or system Balb/c mice. Particulars: mouse, in vivo. As to the method:
Major internal organs and Renca tumors harvested from mice were fixed in 10% formalin or snap frozen in liquid nitrogen. H & E-stained tissue sections of the fixed samples were prepared and evaluated by microscopy as described previously (Yi, T., M. K. Pathak, D. J. Lindner, M. E. Ketterer, C. Farver, and E. C. Borden. 2002. Anticancer activity of sodium stibogluconate in synergy with IFNs. J Immunol 169:5978). Preparation of frozen tissue sections and immunohistochemistry were performed following established procedures (Joliat, M. J., P. A. Lang, B. L. Lyons, L. Burzenski, M. A. Lynes, T. Yi, J. P. Sundberg, and L. D. Shultz. 2002. Absence of CD5 dramatically reduces progression of pulmonary inflammatory lesions in SHP-1 protein-tyrosine phosphatase-deficient ‘viable motheaten’ mice. J Autoimmun 18:105). The antibodies used for immunohistochemistry were anti-CD4 (rat mAb, clone GK1.5, BD Biosciences, Franklin Lakes, N.J.), anti-CD8 (rat mAb, clone 53-6.7.5, BD Biosciences, Franklin Lakes, N.J.), anti-F4/80 (rat mAb, clone A3-1, Serotec, Oxford, UK) and anti-Asialo GM1 (rabbit polyclonal, Cedarlane, Hornby, Canada). […] Tissue sections of 2 mice/group were evaluated. The number of immune cells was semi-quantified based on the following scheme: […], 0-1 positive cells/40×field; +, 2-5 positive cells/40×field; ++, 6-10 positive cells/40×field, etc.

Series [3] concerns the target T1, PRL-3 (Homo sapiens, UniProt O75365).
T1 construct: GST (N); made in house; host or cells: DHSa (DH5a) bacteria
Put plainly: In vitro PTPase assay, recombinant PRL-3, DiFMUP substrate. In kind it is biochemical. Conditions: comparable conditions. As to the method:
In vitro PTPase assays were used to determine the effects of compounds on recombinant PTPases, following established procedures using a synthetic phosphotyrosine peptide or DiFMUP as the substrate (Pathak et al., J. Imumol. 167, 3391 (2001)). Briefly, individual PTPases (0.1 µg/reaction) in 50 μL of PTPase buffer (50 mM Tris, pH 7.4) were incubated at 22° C. for 10 minutes or as indicated in the absence or presence of inhibitory compounds. Substrates (0.2 mM phosphotyrosine peptide) were then added and allowed to react at 22° C. for 18 hrs. PTPase activity of individual reactions was measured by adding 100 µL of malachite green solution (UBI) and then quantifying the amounts of free phosphate cleaved by the PTPase from the peptide substrate by spectrometry (OD660 nm). PTPase assays using DiFMUP as a substrate were conducted following a previously described procedure (Matter, et al., Biochem. Biophys. Res. Comm. 283, 1061 (2001)). Relative PTPase activities were calculated based on the formula: (PTPase activity in the presence of an inhibitory compound/PTPase activity in the absence of the compound)× 100%. To assess the reversibility of PTPase inhibition, GST fusion proteins of the PTPases bound on glutathione beads (Pharmacia) were pre-incubated with cold Tris buffer (50 mM Tris, pH 7.0) or Tris buffer containing the inhibitor at 4° C. for 30 minutes. The beads were then washed three times in cold Tris buffer or not washed prior to subjecting to in vitro PTPase assays.

The test system of series [4] is Jak2/Stat5 tyrosine phosphorylation. Description: IL-3-induced Jak2/Stat5 tyrosine phosphorylation in Baf3 cells. In kind it is cell-based, murine. As for the experimental part:
For induction of cellular protein phosphorylation by sodium stibogluconate or pervanadate, Baf3 cells were incubated in 0.1% FCS-RPMI 1640 medium at 37° C. for 16 hours. The cells were then washed twice in RPMI 1640 medium and incubated with sodium stibogluconate or pervanandate (0.1 mM) for various times prior to termination by lysing cells in cold lysis buffer (50 mM Tris, pH 7.4; 150 mM NaCl; 0.2 mM Na3VO4; 20 mm NaF; 1% Nonidet P-40; 2 mM PMSF; 20 µg/ml of Aprotinin and 1 mM of sodium molybdic acid). To determine the effect of sodium stibogluconate or potassium antimonyl tartrate on IL-3-induced Jak/Stat phosphorylation, Baf3 cells were deprived of the growth factor for 16 hours in 0.1% FCS RPMI 1640 medium and then incubated with or without sodium stibogluconate or potassium antimonyl tartrate for 10 minutes. IL-3 was next added to the cell suspension and incubated for various times. The Cells were then harvested and lysed in cold lysis buffer at 4° C. for 45 minutes. Total cell lysates (TCL) were separated in SDS-PAGE gels, blotted onto nitrocellulose membrane (Schleicher & Schuell), probed with specific antibodies and detected using an enhanced chemiluminescence kit (ECL, Amersham, Arlington Heights, Ill.).

T1 sequence (O75365 whole entry): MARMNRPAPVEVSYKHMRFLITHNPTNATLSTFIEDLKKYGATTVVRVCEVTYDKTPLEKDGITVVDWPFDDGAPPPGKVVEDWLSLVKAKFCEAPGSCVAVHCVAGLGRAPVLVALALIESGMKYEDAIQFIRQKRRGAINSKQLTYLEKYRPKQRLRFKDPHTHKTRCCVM

On to `O.O.O.O.O.O.O.O.O.O=C([O-])[C@@H]1[O][Sb]2([O-])([O][Sb]34([OH])[O][C@H]([C@H](O)CO)[C@H]([O]3)[C@H](C(=O)[O-])[O]4)[O][C@H]([C@H](O)CO)[C@@H]1[O]2.[Na+].[Na+].[Na+]` [sodium stibogluconate], for which the “tolerability” value in series [1] (12 mg Sb daily (440 mg Sb/kg daily)) is “well tolerated with no serious side effects”. In addition, in series [1] (pilot study), the “tolerated daily dose in mice” value stood at 20 mg Sb and the “tolerated daily dose in mice per body weight” value is 700-800 mg Sb/kg. For the same compound, in series [1] (two mice from each group), the “internal organs on dissection” value is listed as “no apparent abnormality of the internal organs”. Also, the “survival of WM9-inoculated nude mice” value in series [1] (until day 25, 4 mice/group) is “survived”. In addition, the “numbers of tumor-infiltrating T cells or NK cells” value in series [2] is listed as “little effect”. In series [3], the “inhibition of PRL-3 with DiFMUP substrate” value was “also detected”. The “phosphotyrosine levels of Jak2 and Stat5 relative to cells without drug” value in series [4] (IL-3 stimulated, drug 10 minutes before, densitometry) is given as “about twice”. Further, the “Jak2/Stat5 tyrosine phosphorylation by drug alone” value in series [4] (no IL-3, 37 C 16 hours) is given as “failed to induce Jak2/Stat5 tyrosine phosphorylation”.
